Test results taken from PubChem BioAssay (NCI).
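Following 48 hours of exposure in 96-well plates, responses at five concentrations were used to interpolate endpoints linearly. The concentration for full growth arrest is given as TGI.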

Tests used:
Assay in all cases: NCI-60 cell line screen, 48 h
786-0 renal = tested on: 786-0 renal
A498 renal = tested on: A498 renal
A549 NSCLC = tested on: A549 NSCLC
COLO 205 colon = tested on: COLO 205 colon
HCT-116 colon = tested on: HCT-116 colon
HCT-15 colon = tested on: HCT-15 colon
HL-60(TB) leukemia = tested on: HL-60(TB) leukemia
LOX IMVI melanoma = tested on: LOX IMVI melanoma
M14 melanoma = tested on: M14 melanoma
MDA-MB-435 = tested on: MDA-MB-435
MOLT-4 leukemia = tested on: MOLT-4 leukemia
NCI-H23 lung = tested on: NCI-H23 lung
OVCAR-4 ovarian = tested on: OVCAR-4 ovarian
OVCAR-5 ovarian = tested on: OVCAR-5 ovarian
SF-268 CNS = tested on: SF-268 CNS
SK-MEL-2 melanoma = tested on: SK-MEL-2 melanoma
SK-OV-3 ovarian = tested on: SK-OV-3 ovarian
SNB-19 CNS = tested on: SNB-19 CNS
U251 CNS = tested on: U251 CNS
UACC-257 melanoma = tested on: UACC-257 melanoma

SMILES | TGI (786-0 renal) [µM] | TGI (A498 renal) [µM] | TGI (A549 NSCLC) [µM] | TGI (COLO 205 colon) [µM] | TGI (HCT-116 colon) [µM] | TGI (HCT-15 colon) [µM] | TGI (HL-60(TB) leukemia) [µM] | TGI (LOX IMVI melanoma) [µM] | TGI (M14 melanoma) [µM] | TGI (MDA-MB-435) [µM] | TGI (MOLT-4 leukemia) [µM] | TGI (NCI-H23 lung) [µM] | TGI (OVCAR-4 ovarian) [µM] | TGI (OVCAR-5 ovarian) [µM] | TGI (SF-268 CNS) [µM] | TGI (SK-MEL-2 melanoma) [µM] | TGI (SK-OV-3 ovarian) [µM] | TGI (SNB-19 CNS) [µM] | TGI (U251 CNS) [µM] | TGI (UACC-257 melanoma) [µM]
c1cncc(CSc2ncnc3nc[nH]c23)c1 | > 100 | > 100 | > 100 | > 100 | > 100 | > 100 | > 100 | > 100 | > 100 | > 100 | > 100 | > 100 | > 100 | > 100 | > 100 | > 100 | > 100 | > 100 | > 100 | > 100
C[C@H]1C[C@H]2[C@@H]3CCC4=CC(=O)C=C[C@]4(C)C3=CC[C@]2(C)[C@@]1(O)C(=O)CO | > 100 | > 100 | > 100 | > 100 | > 100 | > 100 | > 100 | > 100 | > 100 | > 100 | > 100 | > 100 | > 100 | > 100 | > 100 | > 100 | > 100 | > 100 | > 100 | > 100
O=C(NCCCCCCCN1CCCCCCC1)C(C1CCCCC1)C1CCCCC1 | 12.6 | 15.5 | 25.7 | 8.64 | 21.5 | 15.2 | 22.2 | 26.2 | 3.97 | 22.2 | 20.4 | 28.5 | 25.4 | 23.2 | 32.5 | 22.2 | 23.6 | 27.9 | 20.8 | 4.79
C=C1C2CCC3(CCC4C5(C)CCCC4(C=[N+](CCO)C5)C3C2)C1O (stereo not given) | > 100 | > 100 | > 100 | > 100 | > 100 | > 100 | > 100 | > 100 | > 100 | > 100 |  | > 100 | > 100 | > 100 | > 100 | > 100 | > 100 | > 100 | > 100 | > 100
BrCc1ccc(CBr)c2c1-c1c(CBr)ccc3ccc(CBr)c-2c13 | > 100 | > 100 | > 100 |  | > 100 | > 100 | > 100 | > 100 | > 100 | > 100 | > 100 |  | > 100 | > 100 | > 100 | > 100 | > 100 | > 100 | > 100 | > 100
O=[N+]([O-])/C=C/c1cn(CCCCCCCCCCCCn2cc(/C=C/[N+](=O)[O-])c3ccccc32)c2ccccc12 | > 100 | > 100 | > 100 | > 100 | > 100 | > 100 | > 100 | > 100 | > 100 | > 100 | > 100 | > 100 | > 100 | > 100 |  | > 100 | > 100 |  | > 100 | > 100
CC(=O)NCCCCN(CCCNC(C)=O)C(=O)OCc1ccccc1 | > 100 | > 100 | > 100 | > 100 | > 100 | > 100 | > 100 | > 100 | > 100 | > 100 | > 100 | > 100 | > 100 | > 100 | > 100 | > 100 | > 100 |  | > 100 | > 100
CCOC(=O)/C=C\C(C#N)(C#N)N=Cc1ccsc1 | 5.01 | 33.5 | 38.2 | 3.4 | 4.72 | 10.1 | 5.14 | 15.1 | 9.5 | 6.63 | 5.61 | 29.9 | 19.2 | 33.1 | 22 | 33.1 | 35.6 | 55.2 | 33.1 | 20.9
C/C(=N\NC(=S)Nc1ccc([N+](=O)[O-])cc1)c1nc2ncccc2[nH]1 | 11.6 | 8.76 | 19.1 | 23.1 | 6.12 | 9.04 | > 100 |  | 6.37 | 4.42 | 13.3 | 4.14 | 4.21 | 4.14 | > 100 | 4.06 | 14.7 | 4 | 1.84 | 2.96
COc1cccc(C(NC2=NCCC=N2)c2cc3c(cc2O)OCO3)c1O (stereo not given) | 25.6 | 78.8 | > 100 | > 100 | 62.5 | 27.7 | 23.3 | 41.2 | > 100 | 88.8 | 63 | > 100 |  | > 100 | > 100 | 72.5 | > 100 | > 100 | 31.9 | > 100
CC1CC(N2CCOCC2)=Nc2ccccc2N1Cc1ccccc1 (stereo not given) | > 100 | 52.3 | > 100 | > 100 | > 100 | > 100 | > 100 | > 100 | > 100 | > 100 |  | > 100 | > 100 | > 100 | > 100 | > 100 | > 100 | > 100 | > 100 | > 100
O=C(O)Cc1cccc2c(=O)c3cccc([N+](=O)[O-])c3[nH]c12 | > 100 | > 100 | > 100 | 39.4 | > 100 | > 100 | > 100 | > 100 | > 100 | > 100 | > 100 | > 100 | > 100 | > 100 |  | > 100 | > 100 | > 100 | > 100 | > 100
CSc1nc2c3ccccc3ccn2c1C(=O)N/N=C/c1ccccc1 | 42.3 | > 100 | > 100 | > 100 | 38.2 | > 100 | > 100 | > 100 | > 100 | > 100 | > 100 | > 100 | 39.1 | > 100 | > 72.1 | > 100 | 43.7 |  | 37.7 | > 100
c1ccc(COC2C3COC(O3)C(OCc3ccccc3)C2OCc2ccccc2)cc1 (stereo not given) | > 100 | > 100 |  | > 100 | > 100 | > 100 | 30.9 | > 100 | > 100 | > 100 | 56.5 | > 100 | > 100 | > 100 | > 100 | > 100 | > 100 | > 100 | > 100 | > 100
C=CCNC(=O)CN(CC(=O)O)C1CCCCC1N(CC(=O)O)CC(=O)O (stereo not given) | > 100 | > 100 | > 100 | > 100 | > 100 | > 100 | > 100 | > 100 |  | > 100 | > 100 | > 100 | > 100 | > 100 | > 100 |  | > 100 | > 100 | > 100 | > 100
CN1CCC/C1=C1/C(=O)N(c2ccccc2)N=C1c1ccc[nH]1 | > 100 | > 100 | > 100 | > 100 | > 100 | > 100 | > 100 | > 100 | > 100 | > 100 | > 100 | > 100 | > 100 | > 100 | > 100 | > 100 |  | > 100 | > 100 | > 100
CNC(=O)CCCNC(=O)CCCC(=O)OC | > 100 | > 100 | > 100 | > 100 | > 100 | > 100 | > 100 | > 100 | > 100 | > 100 | > 100 | > 100 |  | > 100 | > 100 | > 100 | > 100 | > 100 | > 100 | > 100
Cc1ccc(S(=O)(=O)N2CCN(S(=O)(=O)c3ccc(C)cc3)CCN(S(=O)(=O)c3ccc(C)cc3)Cc3cc(Br)c(Br)cc3CN(S(=O)(=O)c3ccc(C)cc3)CC2)cc1 | > 100 | > 100 | > 100 | > 100 | > 100 | > 100 | > 100 | > 100 | 43.2 | > 100 | > 100 | > 100 | > 100 | > 100 | > 100 |  | > 100 | > 100 | > 100 | > 100
CCC(=O)C(CCN1CCC(N2C(=O)C(CCC#N)c3ccccc32)CC1)(c1ccccc1)c1ccccc1 (stereo not given) | 24.7 | 40.1 | 31.7 | 21.4 | 17 | 26 | 22.2 | 27 | 22.2 | 17.6 | 25 | 48.8 |  | 67.7 | 34.5 | 29.7 | 37.9 | 32 | 27.8 | 26.7
c1ccc2c(-c3csc(-c4c[nH]c5ccccc45)n3)c[nH]c2c1 | > 100 | > 100 | > 100 |  | > 100 | > 100 | 47.6 | > 100 | > 100 | > 100 | 41.4 | > 100 | > 100 | > 100 | > 100 | > 100 | > 100 | > 100 | > 100 | > 100
COc1ccc(C(=O)Oc2c(C#N)sc3c2c(=O)n(-c2ccccc2)c(=S)n3-c2ccccc2)cc1 | > 100 | 41.4 | > 100 | 80.4 | 48.9 | 46.3 | 49.7 | 46.2 | 44.8 | 60.7 | 46.5 | 56.3 | 79 | 68.5 | > 100 |  | > 100 | > 100 | > 100 | > 100
O=S(=O)(O)c1ccc2cc(N=Nc3c(O)ccc4ccccc34)ccc2c1 | > 100 | > 100 | > 100 | > 100 | > 100 | > 100 | > 100 |  | > 100 | > 100 | > 100 | > 100 | > 100 | > 100 | > 100 | > 100 | > 100 | > 100 | > 100 | > 100
COc1ccc(-n2c(C)nc3ccc(NC4OC(CO)C(O)C(O)C4O)cc3c2=O)cc1 (stereo not given) | > 100 | > 100 |  | > 100 | > 100 | > 100 | > 100 | > 100 |  | > 100 | > 100 | > 100 | > 100 | > 100 | > 100 | > 100 |  | > 100 | > 100 | > 100
O=c1[nH]c2nc[nH]c2c(=O)n1C1CCCCC1 | > 100 | > 100 | > 100 | > 100 | > 100 | > 100 | > 100 |  | > 100 | > 100 | > 100 | > 100 | > 100 | > 100 | > 100 | > 100 | > 100 | > 100 | > 100 | > 100
